Patent publication US11660293B2, “Substituted 2-azabicyclo[3.1.1]heptane and 2-azabicyclo[3.2.1]octane derivatives as orexin receptor antagonists” (Chronos Therapeutics Limited, priority 2017, dated 2023)

Assays:
[1] = biological target: human Orexin type 1 receptors (Homo sapiens (Human), UniProt O43613); assay: Scintillation Proximity Assay (SPA) binding assay, [3H]SB-674042 displacement, CHO-hOX1 membranes
[2] = biological target: human Orexin type 2 receptors (Homo sapiens (Human), UniProt O43614); assay: Scintillation Proximity Assay (SPA) binding assay, [3H]EMPA displacement, HEK-hOX2 membranes
Chain of human Orexin type 2 receptors (O43614 whole entry): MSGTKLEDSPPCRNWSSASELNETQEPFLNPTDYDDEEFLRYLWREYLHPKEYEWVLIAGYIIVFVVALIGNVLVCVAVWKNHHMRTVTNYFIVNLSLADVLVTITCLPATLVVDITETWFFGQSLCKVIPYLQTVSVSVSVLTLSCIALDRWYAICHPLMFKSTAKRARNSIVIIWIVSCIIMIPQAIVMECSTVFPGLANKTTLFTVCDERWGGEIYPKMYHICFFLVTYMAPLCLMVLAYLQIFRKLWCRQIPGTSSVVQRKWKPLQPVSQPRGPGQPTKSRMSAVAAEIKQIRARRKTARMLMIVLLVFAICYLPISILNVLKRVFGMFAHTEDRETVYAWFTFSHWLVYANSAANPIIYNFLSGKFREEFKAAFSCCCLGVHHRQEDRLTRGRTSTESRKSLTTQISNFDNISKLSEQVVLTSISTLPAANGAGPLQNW

Chain of human Orexin type 1 receptors (O43613 whole entry): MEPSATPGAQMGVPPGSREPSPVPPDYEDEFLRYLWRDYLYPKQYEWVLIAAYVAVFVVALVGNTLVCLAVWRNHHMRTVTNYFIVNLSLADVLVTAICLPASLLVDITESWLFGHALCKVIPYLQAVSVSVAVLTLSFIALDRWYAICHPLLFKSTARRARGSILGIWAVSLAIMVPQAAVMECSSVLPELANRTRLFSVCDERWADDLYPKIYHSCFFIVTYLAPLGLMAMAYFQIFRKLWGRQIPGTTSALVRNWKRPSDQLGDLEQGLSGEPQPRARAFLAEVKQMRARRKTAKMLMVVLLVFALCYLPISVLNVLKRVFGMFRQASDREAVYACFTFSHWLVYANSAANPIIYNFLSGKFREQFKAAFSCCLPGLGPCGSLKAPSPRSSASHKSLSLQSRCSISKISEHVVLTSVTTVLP

Row | SMILES | OX1 pKi (SPA binding) ([1]; Table 2, [3H]SB-674042 2 nM) | OX2 pKi (SPA binding) ([2]; Table 2, [3H]EMPA 2 nM) | Ki ([2]; Table 2, [3H]EMPA 2 nM, read-out: OX2 pKi (SPA binding) (converted)) [µM] | OX1 pKi (SPA binding) ([1]; Table 1, [3H]SB-674042 2 nM) | OX2 pKi (SPA binding) ([2]; Table 1, [3H]EMPA 2 nM)
1 | C[C@@H]1C2CC(C2)N(C(=O)c2cc(Cl)ccc2-n2nccn2)C1CNc1ncc(C(F)(F)F)cn1 (single isomer, unassigned) [Example 241, N-{[(3R,4S) or (3S,4R)-2-[5-chloro-2-(2H-1,2,3-triazol-2-yl)benzoyl]-4-methyl-2-azabicyclo[3.1.1]heptan-3-yl]methyl}-5-(trifluoromethyl)pyrimidin-2-amine] | 8.27 | 5.59 | – | – | –
2 | C[C@@H]1C2CC(C2)N(C(=O)c2cc(Cl)ccc2-n2nccn2)C1CNc1nc2cccnc2o1 (single isomer, unassigned) [Example 244, N-{[(3R,4S) or (3S,4R)-2-[5-chloro-2-(2H-1,2,3-triazol-2-yl)benzoyl]-4-methyl-2-azabicyclo[3.1.1]heptan-3-yl]methyl}-[1,3]oxazolo[5,4-b]pyridin-2-amine] | 8.25 | 5.18 | – | – | –
3 | Cc1ccc(-c2ncccn2)c(C(=O)N2C3CC(C3)[C@@H](C)C2CNc2cnc(C(F)(F)F)cn2)n1 (single isomer, unassigned) [Example 249, N-{[(3S,4R) or (3R,4S)-4-methyl-2-[6-methyl-3-(pyrimidin-2-yl)pyridine-2-carbonyl]-2-azabicyclo[3.1.1]heptan-3-yl]methyl}-5-(trifluoromethyl)pyrazin-2-amine] | 5.12 | – | > 31.6 | – | –
4 | Cc1ccc(-c2ncccn2)c(C(=O)N2C3CC(C3)[C@@H](C)C2CNc2cnc(C(F)(F)F)cn2)n1 (single isomer, unassigned) [Example 250, N-{[(3R,4S) or (3S,4R)-4-methyl-2-[6-methyl-3-(pyrimidin-2-yl)pyridine-2-carbonyl]-2-azabicyclo[3.1.1]heptan-3-yl]methyl}-5-(trifluoromethyl)pyrazin-2-amine] | 7.9 | 4.85 | – | – | –
5 | Cc1ccc(-n2nccn2)c(C(=O)N2C3CC(C3)[C@@H](C)C2CNc2cnc(C(F)(F)F)cn2)c1 (single isomer, unassigned) [Example 256, N-{[(3R,4S) or (3S,4R)-4-methyl-2-[5-methyl-2-(2H-1,2,3-triazol-2-yl)benzoyl]-2-azabicyclo[3.1.1]heptan-3-yl]methyl}-5-(trifluoromethyl)pyrazin-2-amine] | 8.75 | 5.18 | – | – | –
6 | C[C@@H]1C2CC(C2)N(C(=O)c2cc(F)ccc2-n2nccn2)C1CNc1cnc2cc(F)ccc2n1 (stereo in doubt) [Example 224, cis-6-fluoro-N-({2-[5-fluoro-2-(2H-1,2,3-triazol-2-yl)benzoyl]-4-methyl-2-azabicyclo[3.1.1]heptan-3-yl}methyl)quinoxalin-2-amine] | 8.04 | 6.19 | – | – | –
7 | Cc1ccc(-n2nccn2)c(C(=O)N2C3CC(C3)[C@@H](C)C2CNc2nc3ccccc3o2)n1 (stereo in doubt) [Example 225, cis-N-({4-methyl-2-[6-methyl-3-(2H-1,2,3-triazol-2-yl)pyridine-2-carbonyl]-2-azabicyclo[3.1.1]heptan-3-yl}methyl)-1,3-benzoxazol-2-amine] | 8.32 | 5.22 | – | – | –
8 | Cc1nc(C(=O)N2C(COc3cc4ccccc4cn3)CC3CC2C3)c(-c2ccccc2)s1 (stereo not shown) [Example 38] | – | – | – | 7.61 | 6.9
9 | Cc1ccc(-n2nccn2)c(C(=O)N2C(COc3ccc(F)cc3)CC3CC2C3)n1 (stereo not shown) [Example 39] | – | – | – | 7.64 | 6.19
10 | Cc1nc(C(=O)N2C(COc3ccc(F)cc3)CC3CC2C3)c(-c2ccccc2F)s1 (stereo not shown) [Example 40] | – | – | – | 7.33 | 6.19
11 | Cc1nc(C(=O)N2C(COc3cccc(F)c3)CC3CC2C3)c(-c2ccccc2)s1 (stereo not shown) [Example 44] | – | – | – | 7.15 | 6.38
12 | Cc1nc(C(=O)N2C(COc3ccccc3F)CC3CC2C3)c(-c2ccccc2)s1 (stereo not shown) [Example 45] | – | – | – | 7.22 | 7.12
13 | Cc1nc(C(=O)N2C(COc3ccc(Br)cc3)CC3CC2C3)c(-c2ccccc2)s1 (stereo not shown) [Example 46] | – | – | – | 7.62 | 6.51
14 | Cc1nc(C(=O)N2C(COc3ccc(F)c(F)c3)CC3CC2C3)c(-c2ccccc2)s1 (stereo not shown) [Example 47] | – | – | – | 7.61 | 6.91
15 | Cc1ccc(OCC2CC3CC(C3)N2C(=O)c2nc(C)sc2-c2ccccc2)cc1 (stereo not shown) [Example 48] | – | – | – | 7.45 | 6.53
16 | Cc1nc(C(=O)N2C(COc3ccc(Cl)cc3)CC3CC2C3)c(-c2ccccc2)s1 (stereo not shown) [Example 49] | – | – | – | 7.88 | 6.81

Row | SMILES | OX1 pKi (SPA binding) ([1]; Table 2, [3H]SB-674042 2 nM) | OX2 pKi (SPA binding) ([2]; Table 2, [3H]EMPA 2 nM) | Ki ([2]; Table 2, [3H]EMPA 2 nM, read-out: OX2 pKi (SPA binding) (converted)) [µM] | OX1 pKi (SPA binding) ([1]; Table 1, [3H]SB-674042 2 nM) | OX2 pKi (SPA binding) ([2]; Table 1, [3H]EMPA 2 nM)
17 | Cc1nc(C(=O)N2C(COc3ccc(F)cc3)CC3CC2C3)c(-c2ccc(F)cc2)s1 (stereo not shown) [Example 50] | – | – | – | 7.66 | 6.52
18 | COc1nc(C(=O)N2C(COc3ccc(F)cc3)CC3CC2C3)c(-c2ccccc2)s1 (stereo not shown) [Example 52] | – | – | – | 7.71 | 6.79
19 | O=C(c1nc(C2CC2)sc1-c1ccccc1)N1C(COc2ccc(F)cc2)CC2CC1C2 (stereo not shown) [Example 53] | – | – | – | 7.58 | 7.13
20 | Cc1nc(C(=O)N2C(COc3nc4ccc(F)cc4s3)CC3CC2C3)c(-c2ccccc2)s1 (stereo not shown) [Example 54] | – | – | – | 7.77 | 7.03
21 | Cc1nc(C(=O)N2C(COc3ccc(C(F)(F)F)cn3)CC3CC2C3)c(-c2ccccc2)s1 (stereo not shown) [Example 55] | – | – | – | 7.38 | 6.49
22 | Cc1nc(C(=O)N2C(COc3ccc4ccccc4n3)CC3CC2C3)c(-c2ccccc2)s1 (stereo not shown) [Example 56] | – | – | – | 7.98 | 7.12
23 | Cc1nc(C(=O)N2C(COc3ncc4ccn(C)c4n3)CC3CC2C3)c(-c2ccccc2)s1 (stereo not shown) [Example 57] | – | – | – | 7.35 | 6.86
24 | Cc1nc(C(=O)N2C(COc3cnc4ccccc4n3)CC3CC2C3)c(-c2ccccc2)s1 (stereo not shown) [Example 58] | – | – | – | 7.4 | 6.76
25 | Cc1nc(C(=O)N2C(CNc3cc4ccccc4cn3)CC3CC2C3)c(-c2ccccc2)s1 (stereo not shown) [Example 59, N-[[2-(2-methyl-5-phenyl-1,3-thiazole-4-carbonyl)-2-azabicyclo[3.1.1]heptan-3-yl]methyl}isoquinolin-3-amine] | – | – | – | 8.1 | 7.46
26 | Cc1nc(C(=O)N2C(CNc3ccc4ccccc4n3)CC3CC2C3)c(-c2ccccc2)s1 (stereo not shown) [Example 60, N-{[2-(2-methyl-5-phenyl-1,3-thiazole-4-carbonyl)-2-azabicyclo[3.1.1]heptan-3-yl]methyl}quinolin-2-amine] | – | – | – | 8.27 | 7.39
27 | Cc1nc(C(=O)N2C(CNc3nc4ccc(F)cc4s3)CC3CC2C3)c(-c2ccccc2)s1 (stereo not shown) [Example 61, 6-fluoro-N-{[2-(2-methyl-5-phenyl-1,3-thiazole-4-carbonyl)-2-azabicyclo[3.1.1]heptan-3-yl]methyl}-1,3-benzothiazol-2-amine] | – | – | – | 9.12 | 8.03
28 | Cc1nc(C(=O)N2C3CC(C3)[C@@H](C)C2COc2ccc(F)cc2)c(-c2ncccn2)s1 (stereo partly drawn) [Example 94, cis-3-[(4-fluorophenoxy)methyl]-4-methyl-2-[2-methyl-5-(pyrimidin-2-yl)-1,3-thiazole-4-carbonyl]-2-azabicyclo[3.1.1]heptane] | – | – | – | 8.04 | 6.35
29 | Cc1ccc(-n2nccn2)c(C(=O)N2C3CC(C3)[C@@H](C)C2COc2ccc(F)cc2)n1 (stereo partly drawn) [Example 95, cis-3-[(4-fluorophenoxy)methyl]-4-methyl-2-[6-methyl-3-(2H-1,2,3-triazol-2-yl)pyridine-2-carbonyl]-2-azabicyclo[3.1.1]heptane] | – | – | – | 8.09 | 6.6
30 | Cc1ccc(-n2nccn2)c(C(=O)N2C3CC(C3)[C@@H](C)C2COc2ccc(F)cc2)c1 (stereo partly drawn) [Example 97, cis-3-[(4-fluorophenoxy)methyl]-4-methyl-2-[5-methyl-2-(2H-1,2,3-triazol-2-yl)benzoyl]-2-azabicyclo[3.1.1]heptane] | – | – | – | 7.74 | 6.51
31 | Cc1ccc(-n2nccn2)c(C(=O)N2C3CC(C3)[C@@H](C)C2COc2ccc(Cl)cn2)n1 (stereo partly drawn) [Example 99, cis-3-{[(5-chloropyridin-2-yl)oxy]methyl}-4-methyl-2-[6-methyl-3-(2H-1,2,3-triazol-2-yl)pyridine-2-carbonyl]-2-azabicyclo[3.1.1]heptane] | – | – | – | 7.37 | 6.18
32 | Cc1ccc(-n2nccn2)c(C(=O)N2C3CC(C3)[C@H](C)C2COc2ccc(Cl)cn2)n1 (stereo partly drawn) [Example 102, trans-3-{[(5-chloropyridin-2-yl)oxy]methyl}-4-methyl-2-[6-methyl-3-(2H-1,2,3-triazol-2-yl)pryidine-2-carbonyl]-2-azabicyclo[3.1.1]heptane] | – | – | – | 7.23 | 5.71
